Drawing on US10004701B2, “Methods and compositions for treating infection” (UNIVERSITY OF ROCHESTER, priority 2012, dated 2018), this text covers fold induction for eight compounds.

What all share (test): AK assay 384-well format, Prestwick library screening
For one assay, the system named is E. faecium. The format is cell-based, Enterococcus faecium. The conditions noted are these: Enterococcus faecium, 3 h, 50 μM final drug concentration.
Assay [1] concerns S. aureus strain USA300-0114. The format is cell-based, Staphylococcus aureus. Conditions: Staphylococcus aureus, USA300, 3 h, 50 μM final drug concentration.
For a further assay, the system named is K. pneumoniae. It counts as cell-based, Klebsiella pneumoniae. Conditions: Klebsiella pneumoniae, 3 h, 50 μM final drug concentration.
The test system of assay [2] is A. baumannii strain 98-37-09. The format is cell-based, Acinetobacter baumannii. The conditions noted are these: Acinetobacter baumannii, 983709, 3 h, 50 μM final drug concentration.
The next assay has as its system P. aeruginosa. The format is cell-based, Pseudomonas aeruginosa. The conditions noted are these: Pseudomonas aeruginosa, 3 h, 50 μM final drug concentration.
The test system of another assay is E. cloacae. The format is cell-based, Enterobacter cloacae. The conditions noted are these: Enterobacter cloacae, 3 h, 50 μM final drug concentration.
In the next assay the test system is E. coli. The format is cell-based, Escherichia coli. The conditions noted are these: Escherichia coli, 3 h, 50 μM final drug concentration.
The mark [3] stands for this setting: planktonic E. faecium, 384-well, cutoff for positive-scoring molecules 3-fold increase, read-out: AK-based Prestwick Library Screening Results: E. faecium (increase in extracellular AK activity).
Setting [4] is: planktonic S. aureus, 384-well, cutoff for positive-scoring molecules 3-fold increase, read-out: AK-based Prestwick Library Screening Results: S. aureus (increase in extracellular AK activity).
[5] abbreviates: planktonic K. pneumoniae, 384-well, cutoff for positive-scoring molecules 3-fold increase, read-out: AK-based Prestwick Library Screening Results: K. pneumoniae (increase in extracellular AK activity).
Where [6] appears, read: planktonic A. baumannii, 384-well, cutoff for positive-scoring molecules 3-fold increase, read-out: AK-based Prestwick Library Screening Results: A. baumannii (increase in extracellular AK activity).
Where [7] appears, read: planktonic P. aeruginosa, 384-well, cutoff for positive-scoring molecules 3-fold increase, read-out: AK-based Prestwick Library Screening Results: P. aeruginosa (increase in extracellular AK activity).
Where [8] appears, read: planktonic E. cloacae, 384-well, cutoff for positive-scoring molecules 3-fold increase, read-out: AK-based Prestwick Library Screening Results: E. cloacae (increase in extracellular AK activity).
Where [9] appears, read: planktonic E. coli, 384-well, cutoff for positive-scoring molecules 3-fold increase, read-out: AK-based Prestwick Library Screening Results: E. coli (increase in extracellular AK activity).

SMILES strings stand for the structures. Counter-ions that a name gives are not always drawn. Like-named read-outs stand apart in the source and are kept apart here.

Turning to `CC(=O)OCC(=O)[C@@]1(O)[C@H](C)C[C@H]2[C@@H]3CCC4=CC(=O)C=C[C@]4(C)[C@@]3(F)[C@@H](O)C[C@@]21C` [Dexamethasone acetate], the fold induction at 50 µM came out at 1.2 with E. faecium (setting [3]); 1.2 in assay [1] (setting [4]); 1.1 with K. pneumoniae (setting [5]); 1.1 in assay [2] (setting [6]); 1 in the assay on P. aeruginosa (setting [7]); 1.2 in the assay with E. cloacae (setting [8]). In the assay with E. coli (setting [9]), the fold induction at 50 µM was 1.4.

In the case of `CC1=NS(=O)(=O)c2cc(Cl)ccc2N1` [Diazoxide], the fold induction at 50 µM in the assay on E. faecium (384-well format, cutoff for positive-scoring molecules 3-fold increase, read-out: AK-based Prestwick Library Screening Results, E. faecium (increase in extracellular AK activity)) stood at 0.9; in assay [1] (384-well format, cutoff for positive-scoring molecules 3-fold increase, read-out: AK-based Prestwick Library Screening Results, S. aureus (increase in extracellular AK activity)), 0.5; in the assay with K. pneumoniae (384-well format, cutoff for positive-scoring molecules 3-fold increase, read-out: AK-based Prestwick Library Screening Results, K. pneumoniae (increase in extracellular AK activity)), 0.4; in assay [2] (384-well format, cutoff for positive-scoring molecules 3-fold increase, read-out: AK-based Prestwick Library Screening Results, A. baumannii (increase in extracellular AK activity)) it was 0.4; in the assay with P. aeruginosa (384-well format, cutoff for positive-scoring molecules 3-fold increase, read-out: AK-based Prestwick Library Screening Results, P. aeruginosa (increase in extracellular AK activity)), 0.4; in the assay with E. cloacae (384-well format, cutoff for positive-scoring molecules 3-fold increase, read-out: AK-based Prestwick Library Screening Results, E. cloacae (increase in extracellular AK activity)) it was 0.4. Besides, the fold induction at 50 µM in the assay with E. coli (384-well format, cutoff for positive-scoring molecules 3-fold increase, read-out: AK-based Prestwick Library Screening Results, E. coli (increase in extracellular AK activity)) was determined as 0.5.

Turning to `CCCCOc1cc(C(=O)NCCN(CC)CC)c2ccccc2n1` [Dibucaine], the fold induction at 50 µM in the assay with E. faecium (setting [3]) was 0.9; in assay [1] (setting [4]), 1.3; with K. pneumoniae (setting [5]), 1.1; in assay [2] (setting [6]) it was 1.3; in the assay on P. aeruginosa (setting [7]) it was 1.1; in the assay on E. cloacae (setting [8]), 1.7. Moreover, the fold induction at 50 µM in the assay on E. coli (setting [9]) amounted to 1.3.

Consider `NS(=O)(=O)c1cc(Cl)c(Cl)c(S(N)(=O)=O)c1` [Dichlorphenamide], for which the fold induction at 50 µM turned out to be 1.1 with E. faecium (planktonic, cutoff for positive-scoring molecules 3-fold increase, read-out: AK-based Prestwick Library Screening Results, E. faecium (fold increase in extracellular AK activity)); 0.5 in assay [1] (planktonic, cutoff for positive-scoring molecules 3-fold increase, read-out: AK-based Prestwick Library Screening Results, S. aureus (fold increase in extracellular AK activity)); 0.5 with K. pneumoniae (planktonic, cutoff for positive-scoring molecules 3-fold increase, read-out: AK-based Prestwick Library Screening Results, K. pneumoniae (fold increase in extracellular AK activity)); 0.5 in assay [2] (planktonic, cutoff for positive-scoring molecules 3-fold increase, read-out: AK-based Prestwick Library Screening Results, A. baumannii (fold increase in extracellular AK activity)); 0.5 in the assay with P. aeruginosa (planktonic, cutoff for positive-scoring molecules 3-fold increase, read-out: AK-based Prestwick Library Screening Results, P. aeruginosa (fold increase in extracellular AK activity)); 0.5 in the assay with E. cloacae (planktonic, cutoff for positive-scoring molecules 3-fold increase, read-out: AK-based Prestwick Library Screening Results, E. cloacae (fold increase in extracellular AK activity)). Also, the fold induction at 50 µM in the assay with E. coli (planktonic, cutoff for positive-scoring molecules 3-fold increase, read-out: AK-based Prestwick Library Screening Results, E. coli (fold increase in extracellular AK activity)) came to 0.6.

Regarding `O=C(O)Cc1ccccc1Nc1c(Cl)cccc1Cl` [Diclofenac sodium], the fold induction at 50 µM in the assay with E. faecium (planktonic E. faecium, cutoff for positive-scoring molecules 3-fold increase, read-out: AK-based Prestwick Library Screening Results, E. faecium (increase in extracellular AK activity)) was found to be 0.9; in assay [1] (planktonic S. aureus, cutoff for positive-scoring molecules 3-fold increase, read-out: AK-based Prestwick Library Screening Results, S. aureus (increase in extracellular AK activity)), 0.8; in the assay with K. pneumoniae (planktonic K. pneumoniae, cutoff for positive-scoring molecules 3-fold increase, read-out: AK-based Prestwick Library Screening Results, K. pneumoniae (increase in extracellular AK activity)), 0.7; in assay [2] (planktonic A. baumannii, cutoff for positive-scoring molecules 3-fold increase, read-out: AK-based Prestwick Library Screening Results, A. baumannii (increase in extracellular AK activity)) it was 0.8; in the assay on P. aeruginosa (planktonic P. aeruginosa, cutoff for positive-scoring molecules 3-fold increase, read-out: AK-based Prestwick Library Screening Results, P. aeruginosa (increase in extracellular AK activity)), 0.9; in the assay on E. cloacae (planktonic E. cloacae, cutoff for positive-scoring molecules 3-fold increase, read-out: AK-based Prestwick Library Screening Results, E. cloacae (increase in extracellular AK activity)), 1.2. Also, the fold induction at 50 µM with E. coli (planktonic E. coli, cutoff for positive-scoring molecules 3-fold increase, read-out: AK-based Prestwick Library Screening Results, E. coli (increase in extracellular AK activity)) was found to be 0.9.

With `Cc1onc(-c2c(Cl)cccc2Cl)c1C(=O)N[C@@H]1C(=O)N2[C@@H]1SC(C)(C)[C@@H]2C(=O)O` [Dicloxacillin sodium salt], the fold induction at 50 µM came to 1 in the assay with E. faecium (planktonic, cutoff for positive 3-fold increase, read-out: AK-based Prestwick Library Screening Results, E. faecium (fold increase in extracellular AK activity)); 7.1 in assay [1] (planktonic, cutoff for positive 3-fold increase, read-out: AK-based Prestwick Library Screening Results, S. aureus (fold increase in extracellular AK activity)); 0.9 in the assay on K. pneumoniae (planktonic, cutoff for positive 3-fold increase, read-out: AK-based Prestwick Library Screening Results, K. pneumoniae (fold increase in extracellular AK activity)); 1.5 in assay [2] (planktonic, cutoff for positive 3-fold increase, read-out: AK-based Prestwick Library Screening Results, A. baumannii (fold increase in extracellular AK activity)); 1.4 with P. aeruginosa (planktonic, cutoff for positive 3-fold increase, read-out: AK-based Prestwick Library Screening Results, P. aeruginosa (fold increase in extracellular AK activity)); 1.2 with E. cloacae (planktonic, cutoff for positive 3-fold increase, read-out: AK-based Prestwick Library Screening Results, E. cloacae (fold increase in extracellular AK activity)). The fold induction at 50 µM with E. coli (planktonic, cutoff for positive 3-fold increase, read-out: AK-based Prestwick Library Screening Results, E. coli (fold increase in extracellular AK activity)) was 1.2.

Regarding `O=c1oc2ccccc2c(O)c1Cc1c(O)c2ccccc2oc1=O` [Dicumarol], the fold induction at 50 µM with E. faecium (cutoff for positive-scoring molecules 3-fold increase, read-out: AK-based Prestwick Library Screening Results, E. faecium (fold increase in extracellular AK activity)) was found to be 1.3; in assay [1] (cutoff for positive-scoring molecules 3-fold increase, read-out: AK-based Prestwick Library Screening Results, S. aureus (fold increase in extracellular AK activity)), 1.3; in the assay with K. pneumoniae (cutoff for positive-scoring molecules 3-fold increase, read-out: AK-based Prestwick Library Screening Results, K. pneumoniae (fold increase in extracellular AK activity)), 1.1; in assay [2] (cutoff for positive-scoring molecules 3-fold increase, read-out: AK-based Prestwick Library Screening Results, A. baumannii (fold increase in extracellular AK activity)) it was 1.3; in the assay with P. aeruginosa (cutoff for positive-scoring molecules 3-fold increase, read-out: AK-based Prestwick Library Screening Results, P. aeruginosa (fold increase in extracellular AK activity)), 1.2; in the assay with E. cloacae (cutoff for positive-scoring molecules 3-fold increase, read-out: AK-based Prestwick Library Screening Results, E. cloacae (fold increase in extracellular AK activity)) it was 1.5. For the same compound, the fold induction at 50 µM in the assay with E. coli (cutoff for positive-scoring molecules 3-fold increase, read-out: AK-based Prestwick Library Screening Results, E. coli (fold increase in extracellular AK activity)) was 1.1.

Consider `O=c1[nH]cnc2c1ncn2[C@H]1CC[C@@H](CO)O1` [Didanosine], for which the fold induction at 50 µM in the assay with E. faecium (setting [3]) turned out to be 0.9; in assay [1] (setting [4]) it was 1.2; with K. pneumoniae (setting [5]), 0.9; in assay [2] (setting [6]), 1.5; with P. aeruginosa (setting [7]), 1; with E. cloacae (setting [8]), 4.2. In addition, the fold induction at 50 µM in the assay on E. coli (planktonic E. coli, 384-well, […], read-out: AK-based Prestwick Library Screening Results: E. coli (increase in extracellular AK activity)) was determined as 4.7.
